From US5773459A, “Urea- and thiourea-type compounds” (Sugen, Inc., priority 1995, dated 1998)
Like-named read-outs stand apart in the source and are kept apart here.

Biological target: T1, human EGF receptor (Homo sapiens, UniProt P00533)
T1 construct: expressed in transfected cells; host or cells: NIH3T3 clone C7 (EGFR/C7)
Test: EGFR Whole Cell Kinase Assay (EGFR-3T3 assay)
Format: cell-based
Method: Growth assays were carried out using human mammary epithelial SKBR3 (ATCC HTB30) cells (SKBR3 cells over-express HER2), SKOV3 (ATCC HTB77) human ovarian cancer cell line (SKOV3 cells also over-express HER2), A431 cells (A431 cells over-express EGFR) MCF7 human breast carcinoma cells, MCF7 cells overexpressing the HER2 kinase (MCF7-HER2), NIH3T3 cells, and NIH3T3 cells overexpressing the HER2 kinase (3T3-HER2.
EGFR Whole Cell Kinase Assay
EGFR kinase activity (EGFR-3T3 assay) in whole cells was measured as described below:
Coated plates are good for up to 10 days when stored at 4.sunburst.C.
B. On day of use, remove coating buffer and replace with blocking buffer (5% Carnation Instant NonFat Dry Milk in PBS). Incubate the plate, shaking, at room temperature (about 23.sunburst.C to 25.sunburst.C) for 30 minutes. Just prior to use, remove blocking buffer and wash plate 4 times with TBST buffer.
A. EGFR/C7 cell line (Honegger, et al., supra) can be used for this assay.
B. Choose dishes having 80-90% confluence for the experiment.
Trypsinize cells and stop reaction by adding 10% CS DMEM medium. Suspend cells in DMEM medium (10% CS DMEM medium) and centrifuge once at 1000 rpm, and once at room temperature for 5 minutes.
C. Resuspend cells in seeding medium (DMEM, 0.5% bovine serum), and count the cells using trypan blue. Viability above 90% is acceptable. Seed cells in DMEM medium (0.5% bovine serum) at a density of 10,000 cells per well, 100 μl per well, in a 96 well microtiter plate. Incubate seeded cells in 5% CO2 at 37.sunburst.C for about 40 hours.
A. Check seeded cells for contamination using an inverted microscope. Dilute drug stock (10 mg/ml in DMSO) 1:10 in DMEM medium, then transfer 5 μl to a test well for a final drug dilution of 1:200 and a final DMSO concentration of 1%.
Control wells receive DMSO alone. Incubate in 5% CO2 at 37° C. for one hour.
C. Prepare fresh HNTG sufficient for 100 μl per well; and place on ice.
Control wells receive DMEM alone. […]
K. The maximal phosphotyrosine signal is determined by subtracting the value of the negative controls from the positive controls.

[1] = EGFR/C7 NIH3T3 cells, EGF stimulated, read-out: ELISA DATA: EGFR

T1 sequence (P00533 25-1210): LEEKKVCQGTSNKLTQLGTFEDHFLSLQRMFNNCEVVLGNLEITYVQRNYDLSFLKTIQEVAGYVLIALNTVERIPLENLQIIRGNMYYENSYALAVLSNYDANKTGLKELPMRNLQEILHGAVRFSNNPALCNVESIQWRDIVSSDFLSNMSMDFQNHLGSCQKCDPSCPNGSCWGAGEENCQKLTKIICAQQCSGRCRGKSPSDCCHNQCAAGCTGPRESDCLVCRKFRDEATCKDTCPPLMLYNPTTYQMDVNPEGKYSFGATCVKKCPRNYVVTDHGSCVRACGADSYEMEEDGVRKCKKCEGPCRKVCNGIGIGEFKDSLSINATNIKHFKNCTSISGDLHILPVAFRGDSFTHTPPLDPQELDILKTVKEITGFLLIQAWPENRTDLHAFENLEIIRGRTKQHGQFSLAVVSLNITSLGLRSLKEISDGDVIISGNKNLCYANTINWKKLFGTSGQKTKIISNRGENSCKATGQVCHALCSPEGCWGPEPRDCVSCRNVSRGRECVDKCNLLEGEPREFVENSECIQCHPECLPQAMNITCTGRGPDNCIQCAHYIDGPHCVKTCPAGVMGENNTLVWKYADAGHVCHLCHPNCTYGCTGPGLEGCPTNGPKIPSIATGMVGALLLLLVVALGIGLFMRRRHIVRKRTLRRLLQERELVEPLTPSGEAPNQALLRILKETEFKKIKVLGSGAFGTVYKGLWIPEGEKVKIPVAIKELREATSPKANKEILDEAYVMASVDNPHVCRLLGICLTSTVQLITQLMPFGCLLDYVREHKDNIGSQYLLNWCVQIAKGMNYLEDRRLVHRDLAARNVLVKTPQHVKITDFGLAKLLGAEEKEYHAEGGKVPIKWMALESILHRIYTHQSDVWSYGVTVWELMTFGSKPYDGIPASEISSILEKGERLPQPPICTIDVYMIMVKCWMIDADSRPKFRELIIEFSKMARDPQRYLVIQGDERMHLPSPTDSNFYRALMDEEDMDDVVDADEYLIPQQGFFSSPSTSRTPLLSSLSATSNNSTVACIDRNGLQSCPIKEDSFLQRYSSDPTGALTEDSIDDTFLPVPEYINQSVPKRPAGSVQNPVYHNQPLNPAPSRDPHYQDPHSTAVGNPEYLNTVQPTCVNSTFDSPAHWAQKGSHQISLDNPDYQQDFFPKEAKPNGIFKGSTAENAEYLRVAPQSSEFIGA

How did the IC50 [1] turn out when `CC(C)S(=O)(=O)c1csc(NC(=O)Nc2ccc(C(C)(C)C)cc2)c1Cl` [Example Z1, N-[3-Chloro-4-(isopropylsulfonyl)thien-2-yl]-N'-(4-t-butylphenyl)urea] was run?
The IC50 was over 100 µM.

`O=C(Nc1ccc(SC(F)(F)F)cc1)Nc1ccc(Oc2ccc(Cl)cc2Cl)nc1` [Example Z3] was tested. Which IC50 did it give?
Its IC50 is 69.5 µM.

With `N#Cc1ccc(NC(=S)Nc2ccc(S(=O)(=O)N3CCCCC3)cc2)cc1` [Example Z4, N-(4-Cyanophenyl)-N'-[4-[(piperid-1-yl)sulfonyl]phenyl]thiourea] as the molecule, how does the IC50 [1] read?
The IC50 was over 100 µM.
